We go through three compounds from ChEMBL document CHEMBL4420078, “Sos1 inhibitors for cancer treatment” (2016).

Active and inactive are the calls of the source. No cut-off for these calls is given here.

Test [1] addresses T1, Son of sevenless homolog 1 (Homo sapiens) (UniProt Q07889).
T1 sequence (whole entry): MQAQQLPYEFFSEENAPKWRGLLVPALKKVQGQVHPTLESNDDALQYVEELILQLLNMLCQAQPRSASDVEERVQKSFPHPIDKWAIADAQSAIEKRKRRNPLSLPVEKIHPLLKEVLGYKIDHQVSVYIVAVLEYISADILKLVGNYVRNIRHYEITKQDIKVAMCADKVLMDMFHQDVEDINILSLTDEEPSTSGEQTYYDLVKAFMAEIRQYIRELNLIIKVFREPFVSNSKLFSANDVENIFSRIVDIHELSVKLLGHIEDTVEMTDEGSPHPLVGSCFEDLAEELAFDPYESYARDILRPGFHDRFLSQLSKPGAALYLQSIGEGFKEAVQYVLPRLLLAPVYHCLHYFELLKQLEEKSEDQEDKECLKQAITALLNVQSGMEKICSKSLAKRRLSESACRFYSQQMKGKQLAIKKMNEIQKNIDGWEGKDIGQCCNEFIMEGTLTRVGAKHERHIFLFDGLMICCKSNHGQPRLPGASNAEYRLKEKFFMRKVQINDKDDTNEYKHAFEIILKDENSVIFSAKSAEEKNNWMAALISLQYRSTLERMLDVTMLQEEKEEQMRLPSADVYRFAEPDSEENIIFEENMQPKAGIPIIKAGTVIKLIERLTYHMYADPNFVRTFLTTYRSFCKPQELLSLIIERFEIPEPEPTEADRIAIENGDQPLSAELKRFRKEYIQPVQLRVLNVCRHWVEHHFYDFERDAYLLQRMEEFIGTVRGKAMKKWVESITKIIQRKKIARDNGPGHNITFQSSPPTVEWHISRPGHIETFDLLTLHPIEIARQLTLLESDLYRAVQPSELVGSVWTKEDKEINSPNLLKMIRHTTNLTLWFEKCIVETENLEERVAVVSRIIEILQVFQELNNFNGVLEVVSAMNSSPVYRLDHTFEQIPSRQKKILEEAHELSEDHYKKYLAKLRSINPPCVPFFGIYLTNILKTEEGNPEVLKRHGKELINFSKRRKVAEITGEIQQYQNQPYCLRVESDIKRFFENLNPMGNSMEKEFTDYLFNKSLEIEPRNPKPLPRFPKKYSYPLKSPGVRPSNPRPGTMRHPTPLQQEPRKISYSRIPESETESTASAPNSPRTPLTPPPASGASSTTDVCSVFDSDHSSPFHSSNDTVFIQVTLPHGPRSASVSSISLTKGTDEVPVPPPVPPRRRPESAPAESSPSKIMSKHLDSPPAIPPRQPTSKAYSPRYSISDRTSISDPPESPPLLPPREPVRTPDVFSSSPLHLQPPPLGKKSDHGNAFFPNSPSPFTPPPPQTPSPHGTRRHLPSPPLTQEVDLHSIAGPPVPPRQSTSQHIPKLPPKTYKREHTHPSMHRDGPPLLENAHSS
Kind of test: Inhibition of SOS1 in overnight serum-starved human BxPC3 cells assessed as reduction in AKT phosphorylation at 40 to 60 uM incubated for 2 hrs by Western blotting analysis. (In western blotting, separated proteins are transferred to a membrane and probed.)

Test [2] concerns the target T2, Son of sevenless homolog 1 (Mus musculus) (UniProt Q62245).
T2 sequence (whole entry): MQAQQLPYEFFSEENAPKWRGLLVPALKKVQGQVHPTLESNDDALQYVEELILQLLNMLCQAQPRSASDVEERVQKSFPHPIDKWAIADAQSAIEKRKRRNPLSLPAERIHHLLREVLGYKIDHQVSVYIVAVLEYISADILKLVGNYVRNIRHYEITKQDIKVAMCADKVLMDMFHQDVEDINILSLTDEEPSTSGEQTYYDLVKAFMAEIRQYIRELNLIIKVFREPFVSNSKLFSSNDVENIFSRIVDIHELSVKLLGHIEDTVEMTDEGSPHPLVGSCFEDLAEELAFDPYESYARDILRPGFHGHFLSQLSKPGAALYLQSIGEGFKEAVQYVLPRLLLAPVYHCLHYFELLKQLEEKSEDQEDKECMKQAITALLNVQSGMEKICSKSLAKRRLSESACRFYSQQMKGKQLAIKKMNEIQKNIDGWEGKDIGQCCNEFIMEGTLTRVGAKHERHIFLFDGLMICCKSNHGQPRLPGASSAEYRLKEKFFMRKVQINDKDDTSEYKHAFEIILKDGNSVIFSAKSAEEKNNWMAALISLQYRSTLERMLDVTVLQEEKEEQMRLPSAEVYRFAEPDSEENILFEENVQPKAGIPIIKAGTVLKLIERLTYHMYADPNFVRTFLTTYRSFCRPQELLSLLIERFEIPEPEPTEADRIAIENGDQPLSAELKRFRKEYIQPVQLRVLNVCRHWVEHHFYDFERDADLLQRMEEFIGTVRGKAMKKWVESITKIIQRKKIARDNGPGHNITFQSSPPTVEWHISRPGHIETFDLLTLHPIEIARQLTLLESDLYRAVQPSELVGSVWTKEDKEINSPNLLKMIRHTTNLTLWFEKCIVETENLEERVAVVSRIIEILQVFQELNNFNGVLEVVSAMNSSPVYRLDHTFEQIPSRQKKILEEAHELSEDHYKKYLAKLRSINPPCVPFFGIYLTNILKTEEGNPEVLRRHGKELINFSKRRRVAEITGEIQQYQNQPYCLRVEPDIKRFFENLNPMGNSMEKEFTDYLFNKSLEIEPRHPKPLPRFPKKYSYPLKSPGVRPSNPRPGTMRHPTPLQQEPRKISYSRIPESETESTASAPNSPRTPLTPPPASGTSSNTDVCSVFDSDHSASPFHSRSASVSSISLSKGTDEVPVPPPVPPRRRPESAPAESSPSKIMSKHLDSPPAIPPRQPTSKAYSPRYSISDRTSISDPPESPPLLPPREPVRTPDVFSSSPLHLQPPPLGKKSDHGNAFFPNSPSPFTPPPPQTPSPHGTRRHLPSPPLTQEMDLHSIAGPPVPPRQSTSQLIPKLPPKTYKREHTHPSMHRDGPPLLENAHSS
Kind of test: Inhibition of SOS1 in overnight serum-starved and H-RasG12V transduced mouse MEF assessed as reduction in cell proliferation at 10 to 40 uM incubated for 3 days by MTS assay. The format is cell-based.

In another test the test system is OVCAR-3. Kind of test: Antiproliferative activity against human OVCAR3 cells assessed as reduction in cell number incubated for 48 hrs by MTS assay. The test is classed as functional, cell-based. In general terms: Tetrazolium assays rely on reduction of a dye to a coloured formazan, in cell work by metabolically active cells.
Another test relates to MIA PaCa-2. Kind of test: Growth inhibition of human MIAPaCa2 cells at 30 uM incubated for 3 days by MTS assay relative to control. The format is functional. Conditions: MIA PaCa-2, 72 h, read-out: GI.
For test [3], the target named is Intersectin-1 (Homo sapiens) (UniProt Q15811). Kind of test: Inhibition of N-terminal 6x-His-tagged recombinant human ITSN1 DH and PH domain (1227 to 1571 residues) expressed in Escherichia coli BL21 (DE3) assessed as reduction in 50 nM […] GDP/GTP nucleotide exchange upon 2 uM N-terminal-GST-tagged Cdc42 (1 to 182 residues) at 10 uM by BODIPY-FL-GDP dissociation assay.
Intersectin-1 (Homo sapiens), sequence (Q15811 whole entry, the tested form may be a part): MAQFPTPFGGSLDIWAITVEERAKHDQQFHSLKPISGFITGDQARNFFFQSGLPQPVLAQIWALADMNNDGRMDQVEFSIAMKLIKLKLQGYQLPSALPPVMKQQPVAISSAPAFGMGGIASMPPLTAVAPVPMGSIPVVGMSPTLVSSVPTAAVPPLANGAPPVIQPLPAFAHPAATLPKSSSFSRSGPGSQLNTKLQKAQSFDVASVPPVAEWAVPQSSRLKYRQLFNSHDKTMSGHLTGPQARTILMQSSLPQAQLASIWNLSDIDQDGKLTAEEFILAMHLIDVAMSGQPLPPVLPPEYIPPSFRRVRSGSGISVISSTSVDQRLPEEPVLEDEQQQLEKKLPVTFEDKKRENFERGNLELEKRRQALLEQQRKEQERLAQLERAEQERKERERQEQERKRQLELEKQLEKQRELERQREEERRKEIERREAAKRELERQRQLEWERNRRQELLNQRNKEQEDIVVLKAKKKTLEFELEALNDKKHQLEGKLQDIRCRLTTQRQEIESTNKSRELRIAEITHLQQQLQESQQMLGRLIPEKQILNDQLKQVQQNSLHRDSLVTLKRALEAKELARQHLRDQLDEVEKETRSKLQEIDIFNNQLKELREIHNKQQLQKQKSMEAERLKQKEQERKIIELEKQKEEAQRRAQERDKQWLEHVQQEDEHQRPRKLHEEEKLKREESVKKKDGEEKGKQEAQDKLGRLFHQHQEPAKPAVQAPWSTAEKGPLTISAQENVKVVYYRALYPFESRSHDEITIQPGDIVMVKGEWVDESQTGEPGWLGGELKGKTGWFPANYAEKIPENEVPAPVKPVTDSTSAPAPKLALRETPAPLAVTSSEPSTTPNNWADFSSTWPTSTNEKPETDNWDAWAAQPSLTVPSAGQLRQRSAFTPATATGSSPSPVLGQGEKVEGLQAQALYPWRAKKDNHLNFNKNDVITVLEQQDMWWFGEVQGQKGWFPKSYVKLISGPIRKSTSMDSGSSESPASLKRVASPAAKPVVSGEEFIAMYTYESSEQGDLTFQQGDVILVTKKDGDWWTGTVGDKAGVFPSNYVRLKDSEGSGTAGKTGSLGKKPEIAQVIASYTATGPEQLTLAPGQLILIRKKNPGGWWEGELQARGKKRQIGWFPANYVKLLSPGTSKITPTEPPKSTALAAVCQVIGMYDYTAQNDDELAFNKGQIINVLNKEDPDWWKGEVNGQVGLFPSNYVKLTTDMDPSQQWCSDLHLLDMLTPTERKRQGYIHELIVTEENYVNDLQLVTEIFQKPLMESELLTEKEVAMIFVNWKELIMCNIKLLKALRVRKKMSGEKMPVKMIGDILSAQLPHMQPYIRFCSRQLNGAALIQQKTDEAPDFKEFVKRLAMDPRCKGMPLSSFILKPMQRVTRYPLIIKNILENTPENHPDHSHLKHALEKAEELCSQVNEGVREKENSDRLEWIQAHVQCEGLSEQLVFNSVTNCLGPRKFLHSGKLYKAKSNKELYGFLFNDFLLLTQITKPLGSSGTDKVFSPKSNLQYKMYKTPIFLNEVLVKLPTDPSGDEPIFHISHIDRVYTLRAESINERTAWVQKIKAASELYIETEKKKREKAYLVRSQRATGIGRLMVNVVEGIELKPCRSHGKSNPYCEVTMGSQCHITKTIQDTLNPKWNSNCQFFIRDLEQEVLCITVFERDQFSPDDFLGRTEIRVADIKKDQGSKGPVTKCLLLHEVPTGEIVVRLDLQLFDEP

Consider `O=[N+]([O-])c1ccccc1/C=C/C=C1c2ccccc2-c2ccccc21`, for which the inhibition result in test [1] was “Active”.

In the case of `O=C1Oc2ccccc2C(=O)/C1=C/N1C(=O)/C(=C/c2ccc([N+](=O)[O-])cc2)SC1=S`, in test [2], the inhibition entry is “Active”. For the same compound, the outcome in the test on OVCAR-3 was Active. For the same compound, the inhibition of growth at 30 µM in the test with MIA PaCa-2 worked out at 8%.

With `O=C(O)c1ccccc1-c1c2ccc3cc(O)ccc3c2oc2c1ccc1cc(=O)ccc12`, the inhibition result in test [3] was “inactive”.
